# Results reported in paper PMC10319115, “CL-705G: a novel chemical Kir6.2-specific KATP channel opener” (Frontiers in Pharmacology, 2023).
# How the values were obtained:
# Kir6.2/SUR2A = tested on: T1, Kir6.2/SUR2A; experiment: Tl+ flux (FluxOR II), initial rate, HEK-293; assay type: cell-based; settings: opener; 10 min preincubation
# T1 construct: gene KCNJ11; hetero-octamer
# Kir3.1/Kir3.4 = target: T2, Kir3.1/Kir3.4 (Mus musculus, UniProt P48548+P63250); experiment: two-electrode voltage clamp, Xenopus oocytes; assay type: cell-based; settings: inhibition; high K+ (96 mM) pH 7.3
# T2 construct: gene Kcnj3; heterotetramer expressed from cRNA in Xenopus laevis oocytes
# T2 sequence (P63250 1-501): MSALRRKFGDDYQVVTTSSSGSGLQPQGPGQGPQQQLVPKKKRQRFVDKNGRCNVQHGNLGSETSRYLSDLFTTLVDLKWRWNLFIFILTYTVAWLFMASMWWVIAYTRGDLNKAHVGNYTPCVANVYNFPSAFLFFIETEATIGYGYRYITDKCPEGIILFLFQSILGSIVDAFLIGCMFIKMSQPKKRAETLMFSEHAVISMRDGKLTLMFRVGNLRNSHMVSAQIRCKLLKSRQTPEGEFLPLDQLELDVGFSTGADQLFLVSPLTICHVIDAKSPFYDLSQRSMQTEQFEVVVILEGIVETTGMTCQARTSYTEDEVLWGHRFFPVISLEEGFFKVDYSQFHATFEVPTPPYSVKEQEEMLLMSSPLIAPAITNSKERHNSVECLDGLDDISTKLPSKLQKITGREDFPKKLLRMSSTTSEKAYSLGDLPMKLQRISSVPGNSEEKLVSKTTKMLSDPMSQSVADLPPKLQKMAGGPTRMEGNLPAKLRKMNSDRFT
# T2 sequence (P48548 1-419): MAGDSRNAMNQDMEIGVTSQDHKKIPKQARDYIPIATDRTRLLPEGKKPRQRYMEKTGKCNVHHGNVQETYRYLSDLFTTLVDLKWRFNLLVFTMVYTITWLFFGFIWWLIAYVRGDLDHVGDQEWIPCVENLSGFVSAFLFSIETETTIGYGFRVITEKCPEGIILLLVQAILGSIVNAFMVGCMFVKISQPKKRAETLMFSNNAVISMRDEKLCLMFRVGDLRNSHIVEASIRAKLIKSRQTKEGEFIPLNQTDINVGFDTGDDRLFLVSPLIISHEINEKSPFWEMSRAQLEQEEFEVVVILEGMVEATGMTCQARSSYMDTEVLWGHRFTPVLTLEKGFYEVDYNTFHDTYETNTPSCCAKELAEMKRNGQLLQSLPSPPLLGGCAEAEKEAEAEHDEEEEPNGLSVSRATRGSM
% reduction of current at 100 μM (Kir3.1/Kir3.4) [%],SMILES,EC50 (Kir6.2/SUR2A) [µM]
–,CC(NC(=NC#N)Nc1ccncc1)C(C)(C)C (centres unmarked) [pinacidil],11
17,"O=C(c1cc(=O)[nH][nH]1)N1CCCC(CCc2ccccc2C(F)(F)F)C1 (centres unmarked) [CL-705G, 5-[(3-{2-[2-(trifluoromethyl)phenyl]ethyl}-1-piperidinyl)carbonyl]-1,2-dihydro-3H-pyrazol-3-one]",–
